From patent US11008325B2, “Inhibitors of cancer invasion, attachment, and/or metastasis” (VIRGINIA COMMONWEALTH UNIVERSITY, priority 2016, dated 2021)

How the values were obtained:
[1] = system: PDZ domain from X11/mint scaffold protein; experiment: NMR [15N,1H] HSQC counter screen; format: binding; conditions: 20 μM protein, 100 μM 113B7
Method: FIGS. 4A-4E. FIG. 4A. Chemical structures of the two initial fragment hits (top) and the structure of the resulting molecule 113B7 (PDZ1i). FIG. 4B. Superposition of 2D [^15N, ^1H]-HSQC spectra of 50 μM MDA-9 PDZ12 tandem domain in the absence and presence of 350 μM 113B7. FIG. 4C. Binding curve and representative spectra for the titration of 113B7 against MDA-9 PDZ12 tandem domain. Top: Zoom of box region in FIG. 4B after titrating 113B7 into Mda9 PDZ, tandem domain. The cross peak corresponding to the backbone amide of residue A147 experiences a gradual shift upon the addition of 113B7. Bottom: Titration curve of 113B7 for residue A147. The dissociation constant for the binding of 113B7 to MDA-9 was calculated to be 21.37±8.62 μM. FIG. 4D. Superposition of 2D [^15N, ^1H]-HSQC spectra of 50 μM PDZ domain from X11/mint scaffold protein ([…]; 33% identity with PDZ1) are shown in absence and in presence of […] 113B7. […] FIG. 4E. Docked structure of 113B7 in complex with MDA-9 PDZ tandem domain (PDB: 1W9E). The pose was obtained with GOLD. Two PDZ domains of MDA-9 are labeled.
FIG. 52. Left panel, Docked structure of compound 113B7 on the surface of MDA-9/Syntenin. The docked structure is supported by NMR chemical shift mapping data. […]

[2] = system: HuVEC cells / chorioallantoic membrane; experiment: in vitro tube formation and CAM assays with tumor-derived conditioned media; format: cell-based; conditions: data not shown
Method: In this study, the potential impact of PDZ1i on tumor-derived angiogenesis in a prostate cancer context was explored. The experimental strategy is outlined in FIG. 18A. […] This observation was also validated in different PC cells by qPCR. Additionally, since VEGF-A is a potent angiogenic factor and a downstream target of STAT3, the expression pattern of VEGF-A at both mRNA and protein levels was also evaluated in different PC cells, including mda-9 stably expressing RWPE-1 cells (FIG. 18C).
Tube formation and CAM assays were performed as described previously^27. Briefly, tumor-derived conditioned media were collected after 24 h of treatment (either DMSO or PDZ1i) and concentrated. Equal amounts of protein (50 μg) containing conditioned media were mixed with basal media and incubated with HuVEC cells on Matrigel layers. Photographs were taken after 6 h. In CAM assays, DMSO- or PDZ1 i-treated tumor cell-derived conditioned media were implanted on the CAM of 8 day-old fertilized eggs. Photographs were taken on day 12, 4 days after applying conditioned media.

migration (SAR, Table 4) = format: cell-based
[3] = system: Mcl-1, Bcl-xL, Bid, MT1-MMP-PEX domain, IL20R, RKIP, Jnk2, Ubc13, SIAH1, Ship2-SAM; experiment: binding to panel of protein-protein interaction proteins; conditions: 50 μM, 1:1 ligand/protein ratio
Method: In addition, the molecules are tested against a series of proteins available in the laboratory involved in protein-protein interactions including Mcl-1, Bcl-xL, Bid, MT1-MMP-PEX domain, IL20R, RKIP, Jnk2 (JIP-binding site Met labeled), Ubc13, SIAH1, and Ship2-SAM. […] In designing compounds using elements of the libraries, particular emphasis will be put on drug-like properties of the compounds. […] Additionally, the MTD and PK properties on selected compounds prior to their eventual evaluations in vivo in will be addressed. Preliminarily, PK studies with 113B7 indicate that the compound is stable and long-lived with nearly 100% bioavailability when administered IP (FIG. 53).

U1242 cells = experiment: Proteome Profiler Human Protease Array of conditioned media after radiation; format: cell-based; conditions: 50 μM PDZ1i 2 hrs prior to radiation
Method: FIGS. 10A-10L, PDZ1i inhibits key invasion proteins. U1242 cells were treated with either DMSO or 50 μM PDZ1i 2 hrs prior to radiation in serum-free media. After 48 hrs, media was collected analyzed via the Proteome Profiler Human Protease Array Kit (R&D Systems). Relative protein amounts of the indicated proteins were quantified via ImageJ. FIG. 10A, MMP1; FIG. 10B, MMP2; FIG. 10C, MMP3; FIG. 10D, MMP8; FIG. 10E, MMP9; FIG. 10F, MMP13; FIG. 10G. Cathepsin A; FIG. 10H, Cathepsin B; FIG. 10I, Cathepsin C; FIG. 10J, Cathepsin S; FIG. 10K, Cathepsin V; FIG. 10L, ASAM9.
Radiation can enhance the release of important enzymes, including those involved in invasion such as the matrix metalloproteinase family (MMP). We therefore determined if PDZ1i could affect the secretion of invasion-related proteins following radiation therapy. U1242 cells were treated for 2 hours prior to radiation therapy, and their media collected after 48 hours. […]
CM was harvested from an overnight culture of plated cells in serum-free DMEM+F12 media, filtered with […] filters and further concentrated 10-fold on an Amicon Ultra centrifugal filter—3K (Millipore, Billerica, Mass.). Protein levels were analyzed via the Proteome Profiler Human Protease Array Kit (R&D Systems, Minneapolis, Minn.). Relative quantification was performed by densitometry evaluation. X-ray films were scanned and analyzed with ImageJ software (NIH).

Which “binding to X11/mint PDZ domain” value [1] does the source give for `Cc1cc(NC(=O)c2nc3[nH]c4c(c(=O)n3n2)CCC4)c(C)cc1NC(=O)CCc1nnc(-c2ccccc2)o1` [113B7, N-(2,5-dimethyl-4-(3-(5-phenyl-1,3,4-oxadiazol-2-yl)propanamido)phenyl)-8-oxo-5,6,7,8-tetrahydro-4H-cyclopenta[d][1,2,4]triazolo[1,5-a]pyrimidine-2-carboxamide] here?
Its value is “No appreciable binding is detected”.

What about the “angiogenic activity of treated tumor cell-derived conditioned media” value [2] of the same compound?
Its value is “anti-angiogenic properties”.

What about the “% migr.” value (migration (SAR, Table 4)) of the same compound?
The value was 62%.

And the “binding to protein-protein interaction panel” value [3]?
Its value is “no appreciable binding”.

What about the “radiation gains in Cathepsin family members and ADAM9” value (U1242 cells) of the same compound?
The value was “eliminated these gains”.

What about the “secreted MMP levels (MMP2, MMP9) after radiation” value (U1242 cells; media after 48 hrs) of the same compound?
The value was “reduced the levels”.
